Drawing on paper PMC11481279 (Europace, 2024), this text covers inhibition for four molecules.

By inhibition is commonly meant how much of the control response was suppressed.

This assay concerns the target SARS-CoV-2 ORF 3a protein (Severe acute respiratory syndrome coronavirus 2, UniProt P0DTC3). Briefly: cell-based. The conditions noted are these: read-out: % inhibition at 100 μM.
Turning to `CC(C)NC[C@@H](O)c1ccc(NS(C)(=O)=O)cc1` [D-Sotalol], the inhibition at 100 µM worked out at 20.6 ± 4.5%. For `CN(CCOc1ccc(NS(C)(=O)=O)cc1)CCc1ccc(NS(C)(=O)=O)cc1` [Dofetilide] the value was 65.1 ± 6.7%; for `CCCCc1oc2ccc(NS(C)(=O)=O)cc2c1C(=O)c1ccc(OCCCN(CCCC)CCCC)cc1` [Dronedarone], 45.4 ± 4.7%; for `CCCCCCCN(CC)CCCC(O)c1ccc(NS(C)(=O)=O)cc1` (stereo not shown) [Ibutilide], 36.4 ± 6.6%.
